Measured values from patent US11110103B2, “Inhibitors of glucocorticoid receptor” (ORIC Pharmaceuticals, Inc., priority 2015, dated 2021).

Each compound was assayed against T1, GR (Homo sapiens, UniProt P04150) (assay: In Vitro GR Luciferase Reporter Assay (antagonist assay)). Settings: CHO-K1-GR-MMTV-Luc reporter cells, 10 nM Dexamethasone, 18-24 hours.
T1 construct: expressed in transfected cells; host or cells: CHO-K1 (CHO-K1-GR-MMTV-Luc reporter cells)
T1 sequence (P04150 1-777): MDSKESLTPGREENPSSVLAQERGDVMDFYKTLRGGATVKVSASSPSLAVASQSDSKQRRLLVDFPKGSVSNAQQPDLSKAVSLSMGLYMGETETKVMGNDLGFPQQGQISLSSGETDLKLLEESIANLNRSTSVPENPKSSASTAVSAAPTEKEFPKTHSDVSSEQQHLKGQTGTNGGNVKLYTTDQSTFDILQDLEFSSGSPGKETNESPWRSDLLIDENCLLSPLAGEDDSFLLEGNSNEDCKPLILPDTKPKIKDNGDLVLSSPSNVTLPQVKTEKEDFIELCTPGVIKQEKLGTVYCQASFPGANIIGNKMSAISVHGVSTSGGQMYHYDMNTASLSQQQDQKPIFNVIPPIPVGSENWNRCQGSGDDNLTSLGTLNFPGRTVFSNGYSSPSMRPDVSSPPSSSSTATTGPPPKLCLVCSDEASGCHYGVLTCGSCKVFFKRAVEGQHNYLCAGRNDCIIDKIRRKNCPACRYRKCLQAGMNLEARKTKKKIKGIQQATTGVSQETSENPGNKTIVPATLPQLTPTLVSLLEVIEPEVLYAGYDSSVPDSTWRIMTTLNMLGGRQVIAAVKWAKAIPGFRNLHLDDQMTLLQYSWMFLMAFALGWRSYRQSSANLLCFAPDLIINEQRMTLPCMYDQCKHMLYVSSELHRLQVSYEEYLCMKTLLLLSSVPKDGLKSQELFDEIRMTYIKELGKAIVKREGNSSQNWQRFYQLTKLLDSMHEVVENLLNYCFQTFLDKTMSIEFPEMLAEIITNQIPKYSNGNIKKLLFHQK
Assay type: cell-based
Experimental: Cell Line: CHO-K1-GR-MMTV-Luc reporter cells
Culture Media: DMEM (with phenol red)+10% FBS
Assay Media: DMEM (without phenol red)+10% CSS
Culture CHO-K1-GR-MMTV-Luc reporter cells in 15 cm plates in Culture Media at conditions less than 90% confluence.
Prepare 200×DMSO 1:5 serial dilutions of control and test compounds in 96-well non-sterile V bottom plate in DMSO, 8 serial dilutions for each compound.
Add compounds: 5 ul of assay media diluted compounds were added to appropriate wells and followed a quick spin (1000 rpm, 10 sec) to bring media and cells to the bottom of plate. The plates were covered with SealMate film to avoid evaporation and placed in 37° C. incubator for approximately 18-24 hours.
Read plates: Equilibrate appropriate amount of Promega OneGlo luciferase reagent to room temperature. Remove the plates from incubator and add 25 uL of OneGlo reagent/well by multiple channel pipette and read the plates with Tecan F500 luminometer within 3 minutes.
The ability of the compounds disclosed herein to inhibit GR activity was quantified and the respective IC50 value was determined.

IC50 [µM] | SMILES
> 0.1 | CC#C[C@]1(O)CC[C@H]2[C@@H]3CCC4=CC(=O)CCC4=C3[C@@H](c3cccc(C(C)(C)C)c3)C[C@@]21C
< 0.1 | CC#C[C@]1(O)CC[C@H]2[C@@H]3CCC4=CC(=O)CCC4=C3[C@@H](c3ccc(S(=O)(=O)C(C)(C)C)cc3)C[C@@]21C [drawing 182]
> 0.1 | CC#C[C@]1(O)CC[C@H]2[C@@H]3CCC4=CC(=O)CCC4=C3[C@@H](c3cccc(C(C)O)c3)C[C@@]21C (some centres unmarked)
< 0.1 | CC#C[C@]1(O)CC[C@H]2[C@@H]3CCC4=CC(=O)CCC4=C3[C@@H](c3c(F)cc(N4CCCC4)cc3F)C[C@@]21C
< 0.1 | CC#C[C@]1(O)CC[C@H]2[C@@H]3CCC4=CC(=O)CCC4=C3[C@@H](c3ccc(C(C)C)c(N(C)C)c3)C[C@@]21C [drawing 201]
< 0.1 | CC#C[C@]1(O)CC[C@H]2[C@@H]3CCC4=CC(=O)CCC4=C3[C@@H](c3cc(F)c(OC)c(F)c3)C[C@@]21C
> 0.1 | CC#C[C@]1(O)CC[C@H]2[C@@H]3CCC4=CC(=O)CCC4=C3[C@@H](c3ccc(F)c(N(C)C)c3)C[C@@]21C
< 0.1 | CC#C[C@]1(O)[C@H](C)C[C@H]2[C@@H]3CCC4=CC(=O)CCC4=C3[C@@H](c3c(F)cc(N4CCOCC4)cc3F)C[C@@]21C
< 0.1 | CC#C[C@]1(O)CC[C@H]2[C@@H]3CCC4=CC(=O)CCC4=C3[C@@H](c3ccc(S(=O)(=O)N4CCCCC4)cc3)C[C@@]21C [drawing 181]
< 0.1 | CC#C[C@]1(O)C2(CC2)C[C@H]2[C@@H]3CCC4=CC(=O)CCC4=C3[C@@H](c3c(F)cc(N(C)C)cc3F)C[C@@]21C
< 0.1 | CC#C[C@]1(O)CC[C@H]2[C@@H]3CCC4=CC(=O)CCC4=C3[C@@H](c3cc(C)c(N(C)C)c(F)c3)C[C@@]21C
< 0.1 | CC#C[C@]1(O)[C@H](C)C[C@H]2[C@@H]3CCC4=CC(=O)CCC4=C3[C@@H](c3c(F)cc(N(C)C)cc3F)C[C@@]21C
< 0.1 | CC#C[C@]1(O)CC[C@H]2[C@@H]3CCC4=CC(=O)CCC4=C3[C@@H](c3ccc(OC)c(C(C)C)c3)C[C@@]21C
< 0.1 | CC#C[C@]1(O)CC[C@H]2[C@@H]3CCC4=CC(=O)CCC4=C3[C@@H](c3c(F)cc(C)cc3F)C[C@@]21C

SMILES | IC50 [µM]
CC#C[C@]1(O)CC[C@H]2[C@@H]3CCC4=CC(=O)CCC4=C3[C@@H](c3c(F)cc(OC)cc3F)C[C@@]21C | < 0.1

Each compound was assayed on AR (assay: In Vitro AR Agonism Assay (LNAR reporter cell line)). Settings: LNAR cells, RPMI + 10% CSS, 18-24 hrs; maximum response of Mifepristone set to 1.
Assay type: cell-based
Experimental: Example 6: In Vitro AR Agonism Assay
The AR agonism assay was done in the LNAR reporter cell line which has overexpressed AR and 4XARE-Luc genes. This cell line is sensitive to even minor partial AR agonism activity in hormone-deprived media (CSS). The assays were done in RPMI (without phenol red)+10% CSS using 6000 LNAR cells/well in 384-well plates and compounds were incubated with cells in […] incubator for 18-24 hrs. OneGlo reagent (25 uL/well) was added and plates were read with luminometer within 3 minutes.
To gauge the AR partial agonism activity, Mifepristone is included as a standard in the assay. AR agonism assay results are quantified by determining the ratio of the maximum response of individual compounds to the maximum response of Mifepristone (arbitrarily set to 1). Values of Table 3 are reported as Relative Maximum Response to Mifepristone. This general trend of AR agonism was shown for the class of compounds described herein.

SMILES | Relative Maximum Response to Mifepristone
CC#C[C@]1(O)CC[C@H]2[C@@H]3CCC4=CC(=O)CCC4=C3[C@@H](c3cc(F)cc(F)c3)C[C@@]21C [drawing 246] | A (A: ≤0.4)
CC#C[C@]1(O)CC[C@H]2[C@@H]3CCC4=CC(=O)CCC4=C3[C@@H](c3ccc(Cl)c(C(C)C)c3)C[C@@]21C [drawing 248] | A (A: ≤0.4)
CC#C[C@]1(O)CC[C@H]2[C@@H]3CCC4=CC(=O)CCC4=C3[C@@H](c3ccc(N(C)C)c(C(C)C)c3)C[C@@]21C [drawing 250] | A (A: ≤0.4)
CC#C[C@]1(O)[C@H](C)C[C@H]2[C@@H]3CCC4=CC(=O)CCC4=C3[C@@H](c3ccc(S(=O)(=O)N4CCCCC4)cc3)C[C@@]21C [drawing 255] | A (A: ≤0.4)
CC#C[C@]1(O)CC[C@H]2[C@@H]3CCC4=CC(=O)CCC4=C3[C@@H](c3ccc(Cl)c(OC)c3)C[C@@]21C [drawing 251] | A (A: ≤0.4)
CC#C[C@]1(O)CC[C@H]2[C@@H]3CCC4=CC(=O)CCC4=C3[C@@H](c3ccc(C)c(C)c3)C[C@@]21C [drawing 245] | A (A: ≤0.4)
CC#C[C@]1(O)CC[C@H]2[C@@H]3CCC4=CC(=O)CCC4=C3[C@@H](c3ccc4c(c3)OCCO4)C[C@@]21C [drawing 253] | A (A: ≤0.4)
CC#C[C@]1(O)CC[C@H]2[C@@H]3CCC4=CC(=O)CCC4=C3[C@@H](c3ccc(S(=O)(=O)C(C)(C)C)cc3)C[C@@]21C [drawing 242] | A (A: ≤0.4)
CC#C[C@]1(O)CC[C@H]2[C@@H]3CCC4=CC(=O)CCC4=C3[C@@H](c3cc(F)c(C)c(F)c3)C[C@@]21C [drawing 252] | A (A: ≤0.4)
CC#C[C@]1(O)CC[C@H]2[C@@H]3CCC4=CC(=O)CCC4=C3[C@@H](c3ccc(F)c(C#N)c3)C[C@@]21C [drawing 247] | B (B: >0.4)
CC#C[C@]1(O)CC[C@H]2[C@@H]3CCC4=CC(=O)CCC4=C3[C@@H](c3ccc(S(=O)(=O)N4CCCCC4)cc3)C[C@@]21C [drawing 241] | A (A: ≤0.4)
CC#C[C@]1(O)CC[C@H]2[C@@H]3CCC4=CC(=O)CCC4=C3[C@@H](c3cccc(C(C)C)c3)C[C@@]21C [drawing 243] | A (A: ≤0.4)
CC#C[C@]1(O)[C@H](C)C[C@H]2[C@@H]3CCC4=CC(=O)CCC4=C3[C@@H](c3ccc(N4CCOC[C@H]4C)cc3)C[C@@]21C [drawing 256] | B (B: >0.4)
CC#C[C@]1(O)[C@H](CC)C[C@H]2[C@@H]3CCC4=CC(=O)CCC4=C3[C@@H](c3ccc(N(C)C)cc3)C[C@@]21C [drawing 254] | A (A: ≤0.4)
CC#C[C@]1(O)CC[C@H]2[C@@H]3CCC4=CC(=O)CCC4=C3[C@@H](c3cccc(OCC)c3)C[C@@]21C [drawing 244] | A (A: ≤0.4)
CC#C[C@]1(O)CC[C@H]2[C@@H]3CCC4=CC(=O)CCC4=C3[C@@H](c3ccc(C(C)C)c(N(C)C)c3)C[C@@]21C [drawing 249] | A (A: ≤0.4)

Same assay, conditions: in concentrations as low as 10 nM

SMILES | AR partial agonism
CC#C[C@]1(O)CC[C@H]2[C@@H]3CCC4=CC(=O)CCC4=C3[C@@H](c3ccc(N(C)C)cc3)C[C@@]21C [Mifepristone, reference compound] | strong partial AR agonism
